Test: excess molar enthalpy (molar enthalpy of mixing); xn = mol fraction of the nth substance listed
Details: 100 kPa

C1CCOCC1 + CCCCO
excess molar enthalpy [kcal/mol]
Details | 283.15 K | 298.15 K | 313.15 K
x1 = 0.04 | 0.0282 | 0.0299 | 0.0284
x1 = 0.09 | 0.0574 | 0.0614 | 0.0617
x1 = 0.188 | 0.108 | – | 0.124
x1 = 0.288 | 0.15 | 0.165 | 0.176
x1 = 0.39 | 0.182 | 0.201 | 0.215
x1 = 0.49 | 0.199 | – | 0.234
x1 = 0.593 | 0.204 | 0.223 | –
x1 = 0.694 | 0.192 | – | 0.218
x1 = 0.796 | 0.159 | 0.167 | 0.171
x1 = 0.901 | 0.0963 | 0.0985 | 0.0975
x1 = 0.952 | 0.0528 | 0.0531 | 0.0516

Reference: a compilation of properties of binary mixtures (doi:10.1021/je0498457)
